Source: the METLIN SMRT retention time set (Domingo-Almenara et al. 2019)

Assay: gradient 5% acetonitrile 3 min, to 50% in 2 min, to 85% in 15 min, held 3 min, 100 µL/min
Settings: column: Zorbax Extend-C18 2.1 x 50 mm; eluents: water / acetonitrile, 0.1% formic acid
In short: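 Each retention time is based on an adduct peak selected computationally and verified by manual inspection. Measurements used HPLC–quadrupole time-of-flight mass spectrometry in positive and negative ionization mode on mixtures of ~100 pure standards. Chromatography ran on a Zorbax Extend-C18 column (2.1 × 50 mm, 1.8 μm) at 100 μL/min with water and acetonitrile, each containing 0.1% formic acid, and dead and dwell volumes of 40 μL and 900 μL.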

Compound	RP-LC retention time [s]
O=C1COc2cc(Cl)ccc2N1Cc1nc(-c2cccc(F)c2)no1	1100
Cc1cc(C)cc(NC(=O)C2CCCN2S(=O)(=O)c2ccc3c(c2)CCCC(=O)N3)c1 (centres undefined)	835
Cc1cc2nn(CC(=O)N3CCC(C)CC3)c(=O)n2c(-c2ccc(Cl)cc2)n1	867
CCCNC(=O)C1CCCN(C(=O)c2cc(C)cc(C)c2)C1 (centres undefined)	746
O=C(Cn1nc(C2CC2)cc1C(=O)N1CCCC1)NCc1ccc(F)cc1	738
O=C1Nc2ccc(Br)cc2/C1=C/C(=O)c1ccccc1	964
O=C(Nc1ccc2c(c1)OCO2)N1CCC2(CC1)Nc1cc(F)ccc1-n1cccc12	1000
COc1cccc(-n2c(N3CCCC(C(=O)NCCN4CCCCC4)C3)nc3ccsc3c2=O)c1 (centres undefined)	632
Cc1cc(C)c2c(SC(C)C)nc(N)nc2n1	676
COCCN(CC1(C)CCOCC1)C(=O)NCc1ccc(F)cc1	752
Cc1ccc(-c2noc(CCN3CCN(c4ccccn4)CC3)n2)cc1	625
O=C(c1cccc(F)c1)N1CCC2(CC1)N=C(c1ccc(Cl)cc1)NO2	800
C=CCn1c(SCC(=O)c2cc(C)n(CCOC)c2C)nc2sc(C)c(C)c2c1=O	1140
CC(C)NC(=O)CN1C(=O)CCSc2ccccc21	708
COc1ccc(F)cc1S(=O)(=O)N1CCC(OCc2noc(C3CCCO3)n2)CC1 (centres undefined)	870
CC(NC(=O)Cn1c(C(F)(F)F)nc2ccccc21)c1ccc2c(c1)OCCCO2 (centres undefined)	842
CCc1ccc(NC(=O)N2C[C@@H]3CN(S(=O)(=O)c4ccccc4)C[C@H](C2)O3)cc1	851
COc1ccc(-c2csc3ncn(-n4c(C)ccc4C)c(=O)c23)cc1OC	905
O=C(NCCc1csc(-c2cccs2)n1)C1CCN(C(=O)Cc2ccc(F)cc2)CC1	774
O=C1C(c2cccnc2)N(Cc2cccs2)C(=O)CN1c1ccccc1 (centres undefined)	661

Compound	RP-LC retention time [s]
CCOC(=O)Cc1csc(NC(=O)CCS(=O)(=O)c2ccccc2)n1	844
CCC(C(=O)NCCCN1CCCC1=O)n1c2ccccc2c2cnn(C)c(=O)c21 (centres undefined)	692
CC(=O)N1CCC(C(=O)N2CCC3(CC2)NCc2ccccc2-n2ccnc23)CC1	564
Cc1ccc(N2CCN(C(=O)c3cn4c(n3)COCC4)CC2)cc1	651
CCCCNC(=O)C1c2ccccc2C(=O)N(C)C1c1cccs1 (centres undefined)	775
O=S(=O)(c1cccc2nsnc12)N1CCCn2nc(-c3ccncc3)cc2C1	591
CCN(CC)C(=O)c1c(C)sc2ccn(Cc3ccc(F)cc3)c(=O)c12	828
Cc1ccc(-c2ccc(N3CCCC(C(=O)NC4CC4)C3)nn2)cc1 (centres undefined)	631
CC1CCCN(C(=O)c2ccc3c(c2)Sc2ncccc2C(=O)N3C(C)C)C1 (centres undefined)	850
COc1ccc(C(CNC(=O)c2cc(=O)c3cc(C)cc(C)c3o2)N(C)C)cc1 (centres undefined)	675
Cc1ccccc1NC(=O)C1(C)Oc2cccnc2NC1=O (centres undefined)	673
N#Cc1ccc(-c2nc(-c3ccc(S(=O)(=O)N4CCC(C(=O)N5CCCC5)CC4)cc3)no2)cc1	947
O=c1c2c(CO)c(-c3ccccc3)nn2ccn1Cc1cc(F)ccc1F	924
CCc1csc(-c2cn(CC(=O)NCc3ccc(Cl)cc3)cn2)n1	724
Cc1oc(C2CCN(S(=O)(=O)c3cccc(F)c3)CC2)nc1C(=O)N(C)C	798
O=C(NC1CCCCC1)c1ccc2c(c1)NC(=O)C1CCCCN21 (centres undefined)	807
Cc1nc(-c2ccncc2)nc2c1CC(=O)N2C1CCCCC1	716
O=C(C1CCCC1)N1CC(c2nc(-c3ccccc3)no2)C2(CCOCC2)C1 (centres undefined)	923
O=C(Cn1nc2c3cc(-c4ccc(F)cc4)nn3ccn2c1=O)N1CCCC1	758
COc1cc(NC(=O)C2CCCN(c3cnc4nccnc4c3)C2)cc(OC)c1 (centres undefined)	712

Compound	RP-LC retention time [s]
O=c1n(Cc2cccc(Br)c2)nc2ccc(S(=O)(=O)N3CCCC3)cn12	928
Cc1ccc(C(=O)N2CCn3c(nnc3C(C)C)C2)s1	625
Cc1cc(-c2nnc(C3CC3)o2)c(C)n1CC(=O)NCc1ccc(F)c(Cl)c1	848
CCC(=O)N(C)CCc1noc(COc2cccc(C(F)(F)F)c2)n1	842
CCOC(=O)c1noc2ncnc(Nc3cc(F)ccc3F)c12	799
CN(CCNC(=O)c1ccc2[nH]c3c(c2c1)CN(C(=O)C1CCC1)CC3)C1CCCCC1	646
O=C(Cc1csc(Nc2ncccn2)n1)N1CCN(c2cccc(Cl)c2Cl)CC1	838
O=C(c1cccc(Cl)c1)N1CCN(c2cc(-c3ccccc3)[nH]n2)CC1	763
NC(=O)C(=O)c1cn(CC(=O)NC2CCCCC2)c2ccccc12	743
NC(=O)COc1c(F)cc(SCCNS(=O)(=O)c2ccccc2)cc1F	847
CC(C)c1ccc(S(=O)(=O)N2CCc3c(c(-c4nnc(-c5ccc(F)cc5)o4)nn3C)C2)cc1	1100
CN1c2cc(F)ccc2C(=O)NC12CCN(C(=O)c1ccc(F)cc1)CC2	744
CCN(CC)C(=O)c1ccc2c(c1)N(CC(=O)NCCOC)C(=O)CO2	624
COc1ccc(C2(C(=O)NCC34CCCC=C3NC(=O)CC4)CC2)cc1 (centres undefined)	776
O=C(NCc1ccccc1Br)C1CCN(c2nnc(-c3ccccc3)o2)CC1	880
Cc1nc2cc(N3CC(C(=O)Nc4ccc(C)c(Cl)c4)CC3=O)ccc2o1 (centres undefined)	819
COC(=O)C1=CN(c2cc(OC)ccc2OC)c2ccc(F)cc2S1(=O)=O	874
CCN1C(=O)c2cccc3c(NC(=O)Cc4ccc(S(C)(=O)=O)cc4)ccc1c23	657
Cc1cnn(Cc2nc(-c3ccc(NC(=O)C4CCCC4)cc3)oc2C)c1	905

The remaining lines, values ahead:

RP-LC retention time [s]	Compound
613	Cc1cc(Cl)ccc1-n1ncc2c(N3CCN(CCO)CC3)ncnc21
557	CCOCC(=O)N1CCc2nc(N3CCN(C)CC3)sc2C1
1110	CCc1nc(-c2ccc(-c3noc(CNS(=O)(=O)c4ccc(Cl)cc4)n3)cc2)cs1
915	Cc1cc(-c2nnc(C3CCC3)o2)c(C)n1CC(=O)Nc1ccc(F)c(F)c1
1140	Cc1ccc(Oc2nccnc2N2CCCC(C(=O)NCc3ccc(C)c(C)c3)C2)cc1 (centres undefined)
987	CCc1nc2cc(-c3noc(C4CC(=O)N(c5ccc(C)cc5)C4)n3)ccc2o1 (centres undefined)
590	CO[C@H]1CN(C2CCN(Cc3cn(C(C)C)c4ccccc34)CC2)[C@H]1c1ccncc1
847	COc1cccc(C(=O)CSc2ccc(-n3cccn3)nn2)c1
998	CC(C)c1nc(-c2ccc(C(=O)NCc3noc(COc4ccccc4)n3)cc2)no1
915	O=C(CN1c2ccc(F)cc2-c2ccccc2S1(=O)=O)N1CCCCC1
697	COCc1nncn1C1CCN(S(=O)(=O)c2ccccc2Cl)CC1
999	Cc1ccc(Cc2nc(-c3cccc(-c4ccn[nH]4)c3)no2)cc1
771	CC(=O)c1cccc(C(=O)N2CCC3(CC2)NC(=O)N(Cc2cccc(Cl)c2)C3=O)c1
768	O=c1n(Cc2ccccc2Cl)nc2n1CCCCC2
909	Cc1cccc(NC(=O)Cn2c(=O)nc(N3CCC(C)CC3)c3ccccc32)c1C
769	CCOC(=O)c1nn(-c2cc(C(=O)OC)cc(C(=O)OC)c2)cc1O
582	CC(C)n1cnc2cc(CNC(=O)Cc3ccsc3)ccc21
840	Cc1ccc(C)c(N2C(=O)CN(S(C)(=O)=O)CC2(C)C(=O)NCc2ccc(F)cc2)c1 (centres undefined)
615	O=S(=O)(c1ccc(Br)cc1)N1CCc2nc[nH]c2C1
870	COc1ccccc1Oc1c(NS(=O)(=O)c2ccc(C)cn2)nc(-c2ccncc2)nc1OC
879	CN(C)c1ccc(-c2nc3cnccn3c2Nc2cccc(Cl)c2)cc1
867	O=C(Cc1ccccc1Br)N1CCN(c2cc(-c3ccc(F)cc3)[nH]n2)CC1
1210	Cc1ccc(-c2noc(-c3ccccc3S(=O)(=O)N3CCCCC3)n2)cc1
859	Cc1ccc(Nc2nc(-c3ccc(C)c(C)c3)cs2)nc1
813	O=C(c1ccc(OCC2CCCN2C(=O)c2ccccc2F)cc1)N1CCCC1 (centres undefined)
792	O=C(Cn1c(=O)c2cc(C3CC3)nn2c2ncccc21)Nc1ccc(F)c(F)c1
849	COc1ccc(-n2c(=O)n(C)c(=O)c3cc(C(=O)NCc4ccccc4)cnc32)cc1
1130	CCCN1C(=O)COc2ccc(-c3noc(-c4ccc(CS(=O)(=O)c5ccccc5)cc4)n3)cc21
838	COc1ccccc1N1CCN(S(=O)(=O)c2cc3c(s2)CCN(C(C)=O)C3)CC1
788	CCOc1cc(C(=O)Nc2c(-c3ccc(F)cc3)nc3ccccn23)cc(OCC)c1OCC
